These results are taken from patent US20240101559A1, “TRICYCLIC KINASE INHIBITORS AND USES THEREOF” (DANA-FARBER CANCER INSTITUTE, INC., priority 2019, published 2024).

The nature of data set [1]: Commercial microsome stability assay (half-life analysis). The following applies: mouse liver microsomes; read-out: half-life in mouse liver microsomes (MLM). Type of data set: in vitro ADME. A general note: Liver microsomes are vesicles of endoplasmic reticulum, rich in cytochrome P450 enzymes.
The next data set addresses CDK11A (Homo sapiens (Human), UniProt Q9UQ88). The experiment in a line: Competition binding assay (kinase-tagged phage, qPCR). As to conditions: 11 serial threefold dilutions, read-out: inhibition on CDK11A, IC50. As to the method:
Compounds of the present disclosure were analyzed with a competition binding assay with three components: a kinase-tagged phage, a compound of the present disclosure, and an immobilized ligand that the test compound competes with to displace the kinase. The amount of kinase bound to the immobilized ligand is determined using quantitative PCR of the DNA tag. Kd values (nM) reported for each compound were determined using 11 serial threefold dilutions of test compound and a DMSO control.

A further data set has as its target JAK2 (Homo sapiens (Human), UniProt O60674). The experiment in a line: JAK2 Z-Lyte biochemical assay. As to conditions: commercial JAK2 Z-Lyte assay from Invitrogen. On the procedure: Example 3. JAK2 Z-Lyte Biochemical Assay of the Compounds of the Present Disclosure
The JAK2 Z-Lyte biochemical assay was performed according to manufacturer's instructions (Life Technologies).

In the next data set the test system is CDK11/CycL. The experiment in a line: NanoBRET assay, CDK11/CycL. Type of data set: cell-based. The following applies: live cells, read-out: inhibition of CDK11/CycL interaction. The source says: (§1) The NanoBRET™ assay (Promega Corporation) is a bioluminescence resonance energy transfer (BRET)-based assay that uses NanoLuc® Luciferase as the BRET energy donor and HaloTag® protein labeled with the HaloTag® NanoBRET™ 618 fluorescent Ligand as the energy acceptor to measure the interaction of two binding partners in live cells.
(In general: Bioluminescence resonance energy transfer reports proximity on the nanometre scale.)

Another data set addresses DDR2 (Homo sapiens (Human), UniProt Q16832). The data set is described as follows: KINOMEscan kinase selectivity profiling. Type of data set: binding. The following applies: DDR2, 1 μM; read-out: Ambit KINOMEscan (percent control %). From the text: (§2) Example 7. In Vitro Kinase Selectivity Profiling of the Compounds of the Present Disclosure
A further data set addresses CDK11B (Homo sapiens (Human), UniProt P21127). The experiment in a line: KINOMEscan kinase selectivity profiling. Type of data set: binding. The following applies: read-out: Ambit KINOMEscan (percent control %).
Excerpt: as §2

The next data set concerns the target CSF1R (Homo sapiens (Human), UniProt P07333). The experiment in a line: KINOMEscan kinase selectivity profiling. Type of data set: binding. As to conditions: read-out: Ambit KINOMEscan (percent control %).
Excerpt: as §2

In another data set the target is CDC2L2 (Homo sapiens (Human), UniProt Q9UQ88). The experiment in a line: KINOMEscan kinase selectivity profiling. As to conditions: CDC2L2, 1 μM; read-out: Ambit KINOMEscan (percent control %). Type of data set: binding.
Chain of CDC2L2 (Q9UQ88 whole entry): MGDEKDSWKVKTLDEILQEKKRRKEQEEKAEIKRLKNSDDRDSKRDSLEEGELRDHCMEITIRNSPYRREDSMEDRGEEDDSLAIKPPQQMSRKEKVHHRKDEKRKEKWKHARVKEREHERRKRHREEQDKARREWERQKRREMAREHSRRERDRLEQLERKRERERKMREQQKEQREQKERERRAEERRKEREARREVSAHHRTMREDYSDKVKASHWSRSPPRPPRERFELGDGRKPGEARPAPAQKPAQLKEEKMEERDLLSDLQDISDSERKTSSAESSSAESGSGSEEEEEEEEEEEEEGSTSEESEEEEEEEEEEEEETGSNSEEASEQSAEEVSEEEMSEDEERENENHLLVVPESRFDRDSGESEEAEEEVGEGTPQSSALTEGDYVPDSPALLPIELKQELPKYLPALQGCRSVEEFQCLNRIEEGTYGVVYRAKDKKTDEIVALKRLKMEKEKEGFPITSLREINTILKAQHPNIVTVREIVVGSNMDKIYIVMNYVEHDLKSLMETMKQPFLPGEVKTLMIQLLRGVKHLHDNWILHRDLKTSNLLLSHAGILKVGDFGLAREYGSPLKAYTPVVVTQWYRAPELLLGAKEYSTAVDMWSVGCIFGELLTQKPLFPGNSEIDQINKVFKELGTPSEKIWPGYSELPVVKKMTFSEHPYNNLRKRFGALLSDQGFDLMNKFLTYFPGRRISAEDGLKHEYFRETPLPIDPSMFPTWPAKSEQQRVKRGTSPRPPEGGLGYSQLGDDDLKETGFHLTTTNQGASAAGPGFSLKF
Excerpt: as §2

In a further data set the target is DDR1 (Homo sapiens (Human), UniProt Q08345). The experiment in a line: KINOMEscan kinase selectivity profiling. Type of data set: binding. The following applies: DDR1, 1 μM; read-out: Ambit KINOMEscan (percent control %).
Chain of DDR1 (Q08345 19-913): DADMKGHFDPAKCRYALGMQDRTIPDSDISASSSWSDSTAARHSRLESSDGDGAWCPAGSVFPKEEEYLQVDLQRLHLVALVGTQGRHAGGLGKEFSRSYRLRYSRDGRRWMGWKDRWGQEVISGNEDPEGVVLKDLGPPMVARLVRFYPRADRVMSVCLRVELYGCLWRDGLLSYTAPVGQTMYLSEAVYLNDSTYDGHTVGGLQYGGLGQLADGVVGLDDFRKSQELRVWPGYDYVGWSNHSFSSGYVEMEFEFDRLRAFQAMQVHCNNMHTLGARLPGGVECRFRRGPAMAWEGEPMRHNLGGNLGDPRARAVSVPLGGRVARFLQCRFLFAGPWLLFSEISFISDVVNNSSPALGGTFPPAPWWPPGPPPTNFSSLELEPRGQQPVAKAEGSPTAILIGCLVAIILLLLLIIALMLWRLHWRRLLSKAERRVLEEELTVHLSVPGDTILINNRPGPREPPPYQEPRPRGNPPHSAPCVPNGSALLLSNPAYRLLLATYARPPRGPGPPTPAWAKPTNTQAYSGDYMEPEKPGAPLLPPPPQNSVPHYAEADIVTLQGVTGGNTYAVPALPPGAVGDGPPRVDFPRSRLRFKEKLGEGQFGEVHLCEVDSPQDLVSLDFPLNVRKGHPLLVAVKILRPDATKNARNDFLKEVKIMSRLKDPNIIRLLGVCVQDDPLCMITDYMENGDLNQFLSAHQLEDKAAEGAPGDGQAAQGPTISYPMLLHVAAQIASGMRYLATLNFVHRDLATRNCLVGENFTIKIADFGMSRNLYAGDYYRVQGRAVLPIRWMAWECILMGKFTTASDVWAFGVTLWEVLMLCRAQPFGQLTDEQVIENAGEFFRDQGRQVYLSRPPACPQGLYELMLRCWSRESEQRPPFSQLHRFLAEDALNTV
Excerpt: as §2

In the next data set the target is TAOK2 (Homo sapiens (Human), UniProt Q9UL54). The experiment in a line: KINOMEscan kinase selectivity profiling. Type of data set: binding. As to conditions: TAOK2, 1 μM; read-out: Ambit KINOMEscan (percent control %).
Excerpt: as §2

Another data set deals with KIT(L576P) (Homo sapiens (Human), UniProt P10721, L576P). The data set is described as follows: KINOMEscan kinase selectivity profiling. Type of data set: binding. The following applies: read-out: Ambit KINOMEscan (percent control %).
Excerpt: as §2

The next data set deals with BRAF(V600E) (Homo sapiens (Human), UniProt P15056, V600E). The data set is described as follows: KINOMEscan kinase selectivity profiling. Type of data set: binding. As to conditions: read-out: Ambit KINOMEscan (percent control %).
Excerpt: as §2

The target in a further data set is PDGFRB (Homo sapiens (Human), UniProt P09619). The experiment in a line: KINOMEscan kinase selectivity profiling. As to conditions: read-out: Ambit KINOMEscan (percent control %). Type of data set: binding.
Excerpt: as §2

The next data set concerns the target BRAF (Homo sapiens (Human), UniProt P15056). The experiment in a line: KINOMEscan kinase selectivity profiling. Type of data set: binding. The following applies: read-out: Ambit KINOMEscan (percent control %).
Excerpt: as §2

The next data set has as its system CDK11/cycK. The experiment in a line: NanoBRET assay, CDK11/cycK. The following applies: live cells, read-out: inhibition of CDK11/cycK interaction. Type of data set: cell-based.
Excerpt: as §1

Data set [2] relates to cell lines or patient-derived xenografts from patients with CRLF2-rearranged B-ALL. As to conditions: cited from earlier work.

pIC50: −log10 of the molar value. Bounds are passed on as bounds.

Chain of JAK2 (O60674 whole entry): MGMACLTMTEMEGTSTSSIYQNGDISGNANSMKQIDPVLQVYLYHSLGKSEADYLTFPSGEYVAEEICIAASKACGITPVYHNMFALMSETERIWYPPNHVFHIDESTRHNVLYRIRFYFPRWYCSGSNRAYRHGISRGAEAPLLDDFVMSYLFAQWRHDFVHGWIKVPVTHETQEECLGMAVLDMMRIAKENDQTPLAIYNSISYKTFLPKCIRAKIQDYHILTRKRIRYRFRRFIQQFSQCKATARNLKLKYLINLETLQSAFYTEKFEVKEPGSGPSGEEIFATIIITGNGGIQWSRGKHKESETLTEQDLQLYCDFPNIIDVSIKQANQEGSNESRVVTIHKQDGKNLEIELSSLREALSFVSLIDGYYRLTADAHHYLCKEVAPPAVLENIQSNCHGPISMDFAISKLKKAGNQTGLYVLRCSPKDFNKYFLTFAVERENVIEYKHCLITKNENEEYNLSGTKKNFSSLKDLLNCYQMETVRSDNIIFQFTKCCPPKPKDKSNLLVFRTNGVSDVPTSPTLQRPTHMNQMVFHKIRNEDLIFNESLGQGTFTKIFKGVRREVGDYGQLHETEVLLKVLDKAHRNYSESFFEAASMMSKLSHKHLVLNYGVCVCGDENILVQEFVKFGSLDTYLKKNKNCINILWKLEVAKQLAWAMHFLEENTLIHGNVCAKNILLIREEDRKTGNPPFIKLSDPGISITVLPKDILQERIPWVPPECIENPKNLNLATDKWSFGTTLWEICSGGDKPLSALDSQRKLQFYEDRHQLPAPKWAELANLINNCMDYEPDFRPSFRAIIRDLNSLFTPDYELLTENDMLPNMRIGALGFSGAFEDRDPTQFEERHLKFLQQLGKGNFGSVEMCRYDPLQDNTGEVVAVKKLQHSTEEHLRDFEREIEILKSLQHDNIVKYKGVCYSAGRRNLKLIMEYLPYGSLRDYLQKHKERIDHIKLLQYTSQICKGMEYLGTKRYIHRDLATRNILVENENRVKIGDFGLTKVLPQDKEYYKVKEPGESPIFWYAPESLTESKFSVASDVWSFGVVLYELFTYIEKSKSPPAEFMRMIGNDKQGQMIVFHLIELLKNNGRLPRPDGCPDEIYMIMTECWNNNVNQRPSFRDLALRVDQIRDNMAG
Chain of CSF1R (P07333 20-972): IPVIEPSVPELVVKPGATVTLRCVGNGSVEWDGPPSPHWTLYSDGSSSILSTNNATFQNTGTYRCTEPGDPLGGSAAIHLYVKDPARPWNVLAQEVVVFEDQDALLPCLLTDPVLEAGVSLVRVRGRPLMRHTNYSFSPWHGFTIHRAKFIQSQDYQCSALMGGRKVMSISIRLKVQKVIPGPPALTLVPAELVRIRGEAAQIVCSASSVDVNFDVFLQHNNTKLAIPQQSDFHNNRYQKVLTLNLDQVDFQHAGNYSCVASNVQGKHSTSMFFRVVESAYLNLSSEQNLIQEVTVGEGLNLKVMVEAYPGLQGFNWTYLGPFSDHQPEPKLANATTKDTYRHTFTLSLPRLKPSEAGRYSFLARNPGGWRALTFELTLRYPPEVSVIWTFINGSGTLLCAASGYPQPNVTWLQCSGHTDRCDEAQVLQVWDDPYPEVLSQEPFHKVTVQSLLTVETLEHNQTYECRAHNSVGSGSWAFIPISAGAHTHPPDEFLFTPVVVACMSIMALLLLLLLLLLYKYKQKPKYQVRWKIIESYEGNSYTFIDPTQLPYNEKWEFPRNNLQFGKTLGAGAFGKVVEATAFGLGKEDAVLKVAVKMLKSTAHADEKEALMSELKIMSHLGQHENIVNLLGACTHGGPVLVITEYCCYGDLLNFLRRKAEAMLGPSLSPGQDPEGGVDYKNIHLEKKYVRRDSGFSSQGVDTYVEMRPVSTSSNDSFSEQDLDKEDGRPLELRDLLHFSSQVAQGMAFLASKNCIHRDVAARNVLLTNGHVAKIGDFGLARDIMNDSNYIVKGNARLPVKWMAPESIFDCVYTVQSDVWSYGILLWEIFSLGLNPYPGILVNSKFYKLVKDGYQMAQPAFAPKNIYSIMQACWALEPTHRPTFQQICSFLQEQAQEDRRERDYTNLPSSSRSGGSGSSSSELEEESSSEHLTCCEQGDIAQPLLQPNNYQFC
Chain of DDR2 (Q16832 22-855): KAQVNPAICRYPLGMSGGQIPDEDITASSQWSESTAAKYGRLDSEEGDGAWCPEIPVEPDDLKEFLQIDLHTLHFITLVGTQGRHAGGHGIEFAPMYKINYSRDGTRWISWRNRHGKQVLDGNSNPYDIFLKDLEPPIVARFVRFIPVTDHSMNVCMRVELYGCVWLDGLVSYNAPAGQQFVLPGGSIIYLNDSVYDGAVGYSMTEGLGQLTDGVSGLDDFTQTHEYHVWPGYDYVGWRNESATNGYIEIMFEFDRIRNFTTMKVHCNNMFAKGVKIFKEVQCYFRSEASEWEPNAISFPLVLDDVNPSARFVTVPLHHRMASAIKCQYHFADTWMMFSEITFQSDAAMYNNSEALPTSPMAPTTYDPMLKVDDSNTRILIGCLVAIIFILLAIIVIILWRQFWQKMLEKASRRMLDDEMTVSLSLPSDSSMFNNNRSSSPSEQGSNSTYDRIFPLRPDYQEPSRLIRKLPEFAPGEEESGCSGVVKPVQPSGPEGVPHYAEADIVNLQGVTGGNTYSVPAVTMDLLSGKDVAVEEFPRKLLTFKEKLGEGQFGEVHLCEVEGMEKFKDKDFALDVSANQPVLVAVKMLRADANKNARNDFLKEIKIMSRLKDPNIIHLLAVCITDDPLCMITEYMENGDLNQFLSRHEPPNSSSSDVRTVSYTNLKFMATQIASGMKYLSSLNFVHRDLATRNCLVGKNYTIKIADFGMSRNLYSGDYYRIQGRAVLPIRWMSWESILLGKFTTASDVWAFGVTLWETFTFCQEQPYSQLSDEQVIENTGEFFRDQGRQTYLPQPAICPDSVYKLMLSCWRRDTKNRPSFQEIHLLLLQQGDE
Chain of CDK11A (Q9UQ88 whole entry): as the sequence (Q9UQ88 whole entry) above

As to `CCN1CCN(Cc2ccc(Nc3nc4ccc(Oc5ccnc(NC(C)=O)c5)c5c4n3CCC5)cc2C(F)(F)F)CC1` [Compound I-1, N-(4-((2-((4-((4-ethylpiperazin-1-yl)methyl)-3-(trifluoromethyl)phenyl)amino)-5,6-dihydro-4H-imidazo [4,5,1-ij]quinolin-7-yl)oxy)pyridin-2-yl) acetamide], the half-life in data set [1] was found to be 16.7 min. Besides, the pIC50 was 7.52 on CDK11A, 6.09 against JAK2, 6.54 in the data set with CDK11/CycL and 6.56 in the data set on CDK11/cycK. Besides, the remaining binding at 1 µM is 0% at DDR2; 1.3% at CDK11B; 0.75% on CSF1R; 1% on CDC2L2; 0% on DDR1; 0.3% at TAOK2. Besides, the remaining binding at 1 µM amounted to 0.2% at KIT(L576P), 2% on BRAF(V600E), 0.1% at PDGFRB and 5.5% on BRAF.

For the compound `CC(=O)Nc1cc(Oc2ccc3nc(Nc4ccc(Cl)c(C(F)(F)F)c4)n4c3c2CCC4)ccn1` [Compound I-3, N-(4-((2-((4-chloro-3-(trifluoromethyl)phenyl)amino)-5,6-dihydro-4H-imidazo[4,5,1-ij]quinolin-7-yl)oxy)pyridin-2-yl)acetamide], the pIC50 on JAK2 is < 5.00.

`CCN1CCN(Cc2cc(Nc3nc4ccc(Oc5ccnc(NC(C)=O)c5)c5c4n3CCC5)cc(C(F)(F)F)c2)CC1` [Compound I-4, N-(4-((2-((3-((4-ethylpiperazin-1-yl)methyl)-5-(trifluoromethyl)phenyl)amino)-5,6-dihydro-4H-imidazo[4,5,1-ij]quinolin-7-yl)oxy)pyridin-2-yl)acetamide] showed a pIC50 against JAK2 of 5.74.

In turn, `CC(=O)Nc1cc(Oc2ccc3nc(Nc4ccc(CN5CCN(C)CC5)cc4)n4c3c2CCC4)ccn1` [Compound I-5, N-(4-((2-((4-((4-methylpiperazin-1-yl)methyl)phenyl)amino)-5,6-dihydro-4H-imidazo[4,5,1-ij]quinolin-7-yl)oxy)pyridin-2-yl)acetamide] gave a pIC50 against JAK2 of 5.23.

On to `CC(=O)Nc1cc(Oc2ccc3nc(Nc4ccc(F)cc4F)n4c3c2CCC4)ccn1` [Compound I-6, N-(4-((2-((2,4-difluorophenyl)amino)-5,6-dihydro-4H-imidazo[4,5,1-ij]quinolin-7-yl)oxy)pyridin-2-yl)acetamide], for which, on JAK2, the pIC50 was 5.74.

`CC(=O)Nc1cc(Oc2ccc3nc(Nc4cc(-n5cnc(C)c5)cc(C(F)(F)F)c4)n4c3c2CCC4)ccn1` [Compound I-7, N-(4-((2-((3-(4-methyl-1H-imidazol-1-yl)-5-(trifluoromethyl)phenyl)amino)-5,6-dihydro-4H-imidazo[4,5,1-ij]quinolin-7-yl)oxy)pyridin-2-yl)acetamide]: the pIC50 on JAK2 was 5.34.

With `CC(=O)Nc1cc(Oc2ccc3nc(Nc4cc(N5CCN(C)CC5)cc(C(F)(F)F)c4)n4c3c2CCC4)ccn1` [Compound I-8, N-(4-((2-((3-(4-methylpiperazin-1-yl)-5-(trifluoromethyl)phenyl)amino)-5,6-dihydro-4H-imidazo[4,5,1-ij]quinolin-7-yl)oxy)pyridin-2-yl)acetamide], the pIC50 on JAK2 was 5.00.

`CC(=O)Nc1cc(Oc2ccc3nc(Nc4ccc(CN5CCC(N(C)C)C5)c(C(F)(F)F)c4)n4c3c2CCC4)ccn1` (stereo not shown) [Compound I-9, N-(4-((2-((4-((3-(dimethylamino)pyrrolidin-1-yl)methyl)-3-(trifluoromethyl)phenyl)amino)-5,6-dihydro-4H-imidazo[4,5,1-ij]quinolin-7-yl)oxy)pyridin-2-yl)acetamide] showed a pIC50 at JAK2 of 5.75.

`CC(=O)Nc1cc(Oc2ccc3nc(Nc4cc(C(C)(C)C)nn4-c4ccc(C)cc4)n4c3c2CCC4)ccn1` [Compound I-10, N-(4-((2-((3-(tert-butyl)-1-(p-tolyl)-1H-pyrazol-5-yl)amino)-5,6-dihydro-4H-imidazo[4,5,1-ij]quinolin-7-yl)oxy)pyridin-2-yl)acetamide]: the pIC50 on JAK2 is < 5.00.

On JAK2, `CC(=O)Nc1cc(Oc2ccc3nc(Nc4ccc(OC5CCN(C)CC5)c(C(F)(F)F)c4)n4c3c2CCC4)ccn1` [Compound I-11, N-(4-((2-((4-((1-methylpiperidin-4-yl)oxy)-3-(trifluoromethyl)phenyl)amino)-5,6-dihydro-4H-imidazo[4,5,1-ij]quinolin-7-yl)oxy)pyridin-2-yl)acetamide] gave a pIC50 of 5.43.

Consider `N#CC[C@H](C1CCCC1)n1cc(-c2ncnc3[nH]ccc23)cn1` [Ruxolitinib], for which, in [2], the pIC50 is < 4.70.

The term half-life denotes the time needed for the level to fall by half in the phase considered.
